Data from article PMC11513923, “Discovery of ZLC491 as a Potent, Selective, and Orally Bioavailable CDK12/13 PROTAC Degrader” (Journal of Medicinal Chemistry, 2024).

Tests used:
CDK12 and CDK13 = experiment: Pharmacodynamic study in MDA-MB-231 xenografted mouse model, Western blot of tumor tissues; format: in vivo; settings: 100 and 200 mg/kg orally, 5 consecutive days, vs vehicle, MDA-MB-231 xenograft mice
Method: We further performed pharmacodynamic studies of ZLC491 in an MDA-MB-231 xenografted mouse model. ZLC491 was orally administrated at two doses of 100 and 200 mg/kg, respectively, for 5 consecutive days (Figure 7A). Tumor tissues were harvested on day 5 and subjected to Western blot analysis. […] Additionally, we conducted further histological analysis on the tumors following ZLC491 treatment.
Figure 7 ZLC491 depleted CDK12 and CDK13 proteins in vivo. (A) Study design of pharmacodynamics assessment on target engagement of ZLC491 in the MDA-MB-231 xenograft model; (B) immunoblotting of CDK12, CDK13, and α-tubulin in tissue lysate of MDA-MB-231 xenografts model after ZLC491 treatment; (C) protein levels were quantified using ImageJ and normalized to corresponding α-tubulin, then plotted using GraphPad Prism 8.0; (D) immunohistochemistry (IHC) analysis on the tumors by H&E staining and TUNEL assays; (E) TUNEL histology scores were analyzed and plotted by GraphPad Prism 8.0; (F) body weight change during the treatment.
The pharmacodynamics experiments were performed under an approved animal protocol by the Institutional Animal Care & Use Committee of the University of Michigan. Six- to eight-week-old CB17SCID female (Charles River Laboratory) mice were in a regular SPF housing room prior to cell injection. […]

CCNK = experiment: TMT-labeled quantitative proteomics in MDA-MB-231 cells; format: cell-based, Homo sapiens; settings: 8 h
Method: (§1) The global proteomic selectivity of ZLC491 was investigated by using the tandem mass tag (TMT) labeled mass-spectrometry. […] CDK13 was not detected in either degrader treatment groups or DMSO control groups, likely due to its insufficient cellular expression for mass spectrometry detection.
(§2) Figure 5 ZLC491 degraded CDK12/13 with high selectivity. (A) Global proteomic analysis of ZLC491 in MDA-MB-231 cells after 8 h treatment of DMSO or 2 μM ZLC491; (B) mass-spec quantification of CDKs changes; (C) immunoblotting of target protein degradation in samples for proteomic analysis.
MDA-MB-231 cells were seeded at 8 × 10^5 cells in 6 cm dishes 24 h before treating with 2 μM ZLC491 or DMSO in quadruplicate or triplicate for 8 h. […] Samples were quantified using a micro-BCA protein assay kit (Thermo Fisher Scientific) and 600 μg of each sample was processed and digested using the filter aided sample preparation (FASP) method followed by alkylation with iodoacetamide and digestion with trypsin. […]
The fractions were analyzed sequentially on an Orbitrap Fusion Lumos Mass Spectrometer (Thermo Scientific) coupled to a NanoLC-1200 UHPLC system (Thermo Scientific) with C18 capillary column. […] MS3 precursor were fragmented by HCD and analyzed with Orbitrap at NCE 65, AGC 1E5, resolution 60000. […]

CDK12 = CDK12 (Homo sapiens, UniProt Q9NYV4); experiment: as above; format: cell-based; set-up: endogenous in cells; host or cells: MDA-MB-231; settings: 8 h
Method: as §1, §2
MDA-MB-231 cells were seeded at 8 × 10^5 cells in 6 cm dishes 24 h before treating with 2 μM ZLC491 or DMSO in quadruplicate or triplicate for 8 h. Cell lysates were prepared by washing cells twice with cold PBS and adding 180 μL lysis buffer (10 mM HEPES, pH 7.0, 1% (w/v) SDS, 2 mM MgCl·6H2O supplemented with 0.1% BeyoZonase (Beyotime)) per dish. Samples were quantified using a micro-BCA protein assay kit (Thermo Fisher Scientific) and 600 μg of each sample was processed and digested using the filter aided sample preparation (FASP) method followed by alkylation with iodoacetamide and digestion with trypsin. The samples were then desalted using Oasis HLB C18 SPE cartridge column (Waters, WAT094225). The peptides were lyophilized and reconstituted, then 25 μg peptides of each sample were labeled with TMT 11-plex Isobaric Label Reagent Set (Thermo Fisher Scientific) as the manufacturer’s instructions. After labeling, the peptides from the 11 samples were pooled together. […]
The fractions were analyzed sequentially on an Orbitrap Fusion Lumos Mass Spectrometer (Thermo Scientific) coupled to a NanoLC-1200 UHPLC system (Thermo Scientific) with C18 capillary column. […] MS3 precursor were fragmented by HCD and analyzed with Orbitrap at NCE 65, AGC 1E5, resolution 60000.
The raw MS data files for all 11 fractions were searched against the Uniprot-Human-Canonical database by Proteome Discoverer 2.0 for protein identification and TMT reporter ion quantitation. […]

CDK12, sequence (Q9NYV4 whole entry): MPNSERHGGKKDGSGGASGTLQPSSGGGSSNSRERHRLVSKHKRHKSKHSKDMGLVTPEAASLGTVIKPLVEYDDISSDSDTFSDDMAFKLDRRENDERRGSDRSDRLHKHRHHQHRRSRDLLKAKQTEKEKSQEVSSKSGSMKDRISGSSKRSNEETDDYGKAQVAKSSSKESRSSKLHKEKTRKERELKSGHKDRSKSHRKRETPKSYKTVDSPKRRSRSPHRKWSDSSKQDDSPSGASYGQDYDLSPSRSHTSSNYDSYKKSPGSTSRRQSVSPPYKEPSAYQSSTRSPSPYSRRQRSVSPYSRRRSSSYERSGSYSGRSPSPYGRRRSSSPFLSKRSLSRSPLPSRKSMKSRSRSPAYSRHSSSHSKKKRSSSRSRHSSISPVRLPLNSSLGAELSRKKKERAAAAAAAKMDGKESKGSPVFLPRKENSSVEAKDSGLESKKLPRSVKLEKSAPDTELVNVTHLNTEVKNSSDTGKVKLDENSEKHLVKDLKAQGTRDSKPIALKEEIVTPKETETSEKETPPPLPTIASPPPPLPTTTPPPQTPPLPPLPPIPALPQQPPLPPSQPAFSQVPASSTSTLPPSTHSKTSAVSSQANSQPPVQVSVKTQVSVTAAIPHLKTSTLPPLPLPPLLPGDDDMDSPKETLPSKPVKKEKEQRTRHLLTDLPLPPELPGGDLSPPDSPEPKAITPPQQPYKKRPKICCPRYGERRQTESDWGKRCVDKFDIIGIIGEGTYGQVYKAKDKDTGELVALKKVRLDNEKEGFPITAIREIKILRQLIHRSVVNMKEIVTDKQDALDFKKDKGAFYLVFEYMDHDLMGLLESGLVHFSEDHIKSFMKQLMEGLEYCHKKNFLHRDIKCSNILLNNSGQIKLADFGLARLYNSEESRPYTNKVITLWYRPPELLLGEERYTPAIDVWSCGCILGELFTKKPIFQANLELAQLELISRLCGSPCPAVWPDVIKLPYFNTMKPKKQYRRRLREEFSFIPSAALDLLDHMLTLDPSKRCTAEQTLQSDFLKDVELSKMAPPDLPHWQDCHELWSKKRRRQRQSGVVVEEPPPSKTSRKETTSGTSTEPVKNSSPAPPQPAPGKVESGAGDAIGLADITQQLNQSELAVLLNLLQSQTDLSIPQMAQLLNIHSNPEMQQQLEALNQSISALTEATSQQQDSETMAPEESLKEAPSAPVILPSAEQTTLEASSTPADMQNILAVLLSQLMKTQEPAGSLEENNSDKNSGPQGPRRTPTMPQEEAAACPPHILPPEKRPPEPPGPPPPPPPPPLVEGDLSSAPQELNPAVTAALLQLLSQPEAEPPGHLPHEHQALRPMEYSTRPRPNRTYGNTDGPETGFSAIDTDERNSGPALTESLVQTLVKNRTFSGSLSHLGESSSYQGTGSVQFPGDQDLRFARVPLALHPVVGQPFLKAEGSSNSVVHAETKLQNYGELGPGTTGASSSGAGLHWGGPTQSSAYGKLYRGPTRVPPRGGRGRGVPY
CDK12, sequence (O75909 whole entry partner): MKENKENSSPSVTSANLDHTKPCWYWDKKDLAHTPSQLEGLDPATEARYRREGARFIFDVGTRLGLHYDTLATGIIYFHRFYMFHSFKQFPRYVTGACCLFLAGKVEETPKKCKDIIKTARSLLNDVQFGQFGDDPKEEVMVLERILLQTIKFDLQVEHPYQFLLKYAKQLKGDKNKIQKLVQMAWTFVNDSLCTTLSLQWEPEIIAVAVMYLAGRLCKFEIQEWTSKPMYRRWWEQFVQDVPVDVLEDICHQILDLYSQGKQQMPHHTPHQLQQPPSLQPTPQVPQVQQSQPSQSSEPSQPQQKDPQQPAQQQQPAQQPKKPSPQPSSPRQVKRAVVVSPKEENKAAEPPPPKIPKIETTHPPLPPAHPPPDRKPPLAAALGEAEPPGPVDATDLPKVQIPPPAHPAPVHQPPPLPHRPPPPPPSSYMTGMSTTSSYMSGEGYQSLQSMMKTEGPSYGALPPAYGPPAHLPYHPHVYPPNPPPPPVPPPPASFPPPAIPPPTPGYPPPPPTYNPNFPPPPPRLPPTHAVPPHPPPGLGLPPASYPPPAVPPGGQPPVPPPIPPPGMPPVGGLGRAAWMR

Compound: N#Cc1ccc(N[C@H]2CC[C@H](N(C(=O)NCc3ccccc3)c3ccc(N4CCN(C5CCN(c6cc7c(cc6F)C(=O)N(C6CCC(=O)NC6=O)C7=O)CC5)CC4)cc3)CC2)nc1 (stereo partly drawn) [ZLC491, 3-Benzyl-1-((1r,4r)-4-((5-cyanopyridin-2-yl)amino)cyclohexyl)-1-(4-(4-(1-(2-(2,6-dioxopiperidin-3-yl)-6-fluoro-1,3-dioxoisoindolin-5-yl)piperidin-4-yl)piperazin-1-yl)phenyl)urea]
- CDK12 and CDK13 proteins in tumor tissues (CDK12 and CDK13): significantly depleted
- FC_4-91 (CCNK) (CCNK; 2 μM ZLC491 vs DMSO): 0.4255
- CCNK level in global proteomics (CCNK; 2 μM): significantly decreased
- FC_4-91 (CDK12) (CDK12; 2 μM ZLC491 vs DMSO): 0.249
- CDK12 level in global proteomics (CDK12; 2 μM): significantly decreased
- selectivity among CDKs in global proteomics (CDK12; 2 μM): selective for CDK12 over other CDKs
